19 compounds from patent US20260325533A1, “CDK INHIBITOR COMPOUNDS” (ALEKSIA THERAPEUTICS, INC., priority 2023, published 2026) can be followed below.

Structures are written as SMILES. Where two headings read alike, the source gives them in different places. A value given as a limit tells only on which side of the number the result lay.

Holding throughout (format): biochemical
For one assay, the target named is CDK2/CCNE1 (Homo sapiens, UniProt P24941). Put plainly: CDK2 homogeneous time-resolved fluorescence (HTRF) kinase assay. The conditions noted are these: CDK2/CCNE. An outline of the steps: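 IC50 derived from 11-point, half-log dilutions (usually top 10 μM) of compound, 1% DMSO. Kinase (3 nM CDK2/CCNE1) was preincubated with compound 20 min, then phosphorylated 50 nM ULight-4E-BP1 peptide at 1 mM ATP for 60 min, 23 °C. Europium-antibody TR-FRET read after EDTA stop.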
(In general: Time-resolved FRET reads energy transfer from a long-lived donor to a nearby acceptor.)

A further assay has as its target CDK1/CCNB1 (Homo sapiens, UniProt P06493). The experiment in a line: CDK1 homogeneous time-resolved fluorescence (HTRF) kinase assay. The following applies: CDK1/CCNB; x = IC50 >250 nM; read-out: CDK1/CCNB IC50 (>250 nM column). The method, boiled down: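 High-ATP (1 mM) HTRF assay with 0.5 nM CDK1/cyclin B1 and 50 nM ULight-4E-BP1 (Thr37/46) substrate, 60 min at 23 °C after 20-min compound preincubation. IC50 values come from dose-response curves.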

The next assay addresses CDK4/CCND3 (Homo sapiens, UniProt P11802). The experiment in a line: CDK4 homogeneous time-resolved fluorescence (HTRF) kinase assay. The conditions noted are these: CDK4/CCND; x = IC50 >250 nM; read-out: CDK4/CCND IC50 (>250 nM column). The method, boiled down: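 HTRF kinase assay, CDK4/CCND3 1.5 nM, ATP 1 mM, ULight-4E-BP1 peptide 50 nM, 23 °C, 60 min reaction after 20 min preincubation. Eu-anti-pThr37/46 antibody detection. 11-pt half-log curves from 10 μM → IC50.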

The next assay deals with CDK6/CCND1 (Homo sapiens, UniProt Q00534). Put plainly: CDK6 homogeneous time-resolved fluorescence (HTRF) kinase assay. The conditions noted are these: CDK6/CCND; x = IC50 >250 nM; read-out: CDK6/CCND IC50 (>250 nM column). The method, boiled down: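 Recombinant CDK6/CCND1 (1 nM final) was preincubated with compound for 20 min at 23 °C in HEPES buffer with MgCl2, EGTA, DTT and Tween 20. Kinase reaction then ran 60 min at 23 °C with 1 mM ATP and 50 nM ULight-4E-BP1 (Thr37/46) peptide, and was stopped with EDTA.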

[1] abbreviates: x = IC50 <25 nM, read-out: CDK2/CCNE IC50 (<25 nM).
The mark [2] stands for this setting: x = IC50 25-250 nM, read-out: CDK2/CCNE IC50 (25-250 nM).

CDK1/CCNB1, sequence (P06493 whole entry): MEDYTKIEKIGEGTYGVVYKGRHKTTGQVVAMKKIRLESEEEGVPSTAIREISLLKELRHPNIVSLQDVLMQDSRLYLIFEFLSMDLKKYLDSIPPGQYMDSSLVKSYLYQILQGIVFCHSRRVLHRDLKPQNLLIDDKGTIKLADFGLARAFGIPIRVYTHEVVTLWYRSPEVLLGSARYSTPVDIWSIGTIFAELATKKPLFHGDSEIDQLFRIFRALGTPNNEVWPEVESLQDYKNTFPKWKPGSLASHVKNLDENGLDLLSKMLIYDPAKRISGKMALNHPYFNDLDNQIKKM
CDK1/CCNB1, sequence (P14635 whole entry partner): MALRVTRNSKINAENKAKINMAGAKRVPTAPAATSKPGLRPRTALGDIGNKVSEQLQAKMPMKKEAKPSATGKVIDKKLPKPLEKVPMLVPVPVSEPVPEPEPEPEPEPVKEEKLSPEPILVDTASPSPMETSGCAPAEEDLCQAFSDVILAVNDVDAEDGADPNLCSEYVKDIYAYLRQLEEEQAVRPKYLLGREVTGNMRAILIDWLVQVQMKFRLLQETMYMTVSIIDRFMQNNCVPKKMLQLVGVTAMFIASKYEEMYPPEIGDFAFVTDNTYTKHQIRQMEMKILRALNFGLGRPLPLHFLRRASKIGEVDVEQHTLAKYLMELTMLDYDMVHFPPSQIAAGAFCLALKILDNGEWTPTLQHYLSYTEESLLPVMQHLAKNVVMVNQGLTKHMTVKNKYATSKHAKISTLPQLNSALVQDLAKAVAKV
CDK4/CCND3, sequence (P11802 whole entry): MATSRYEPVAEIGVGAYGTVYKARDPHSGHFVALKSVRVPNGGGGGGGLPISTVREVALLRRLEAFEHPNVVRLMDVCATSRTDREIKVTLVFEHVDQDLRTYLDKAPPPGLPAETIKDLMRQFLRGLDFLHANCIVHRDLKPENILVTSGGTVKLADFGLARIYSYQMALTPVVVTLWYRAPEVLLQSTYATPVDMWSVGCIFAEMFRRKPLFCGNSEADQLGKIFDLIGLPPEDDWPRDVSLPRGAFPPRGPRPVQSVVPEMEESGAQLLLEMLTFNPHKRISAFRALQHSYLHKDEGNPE
CDK4/CCND3, sequence (P30281 whole entry partner): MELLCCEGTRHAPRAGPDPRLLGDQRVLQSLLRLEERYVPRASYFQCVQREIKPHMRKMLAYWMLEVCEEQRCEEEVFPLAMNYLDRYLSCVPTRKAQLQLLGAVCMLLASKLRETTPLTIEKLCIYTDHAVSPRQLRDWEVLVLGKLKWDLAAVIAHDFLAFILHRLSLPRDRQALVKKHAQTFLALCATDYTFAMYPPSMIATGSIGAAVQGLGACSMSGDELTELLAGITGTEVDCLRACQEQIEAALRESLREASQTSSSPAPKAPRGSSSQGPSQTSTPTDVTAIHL
CDK6/CCND1, sequence (Q00534 whole entry): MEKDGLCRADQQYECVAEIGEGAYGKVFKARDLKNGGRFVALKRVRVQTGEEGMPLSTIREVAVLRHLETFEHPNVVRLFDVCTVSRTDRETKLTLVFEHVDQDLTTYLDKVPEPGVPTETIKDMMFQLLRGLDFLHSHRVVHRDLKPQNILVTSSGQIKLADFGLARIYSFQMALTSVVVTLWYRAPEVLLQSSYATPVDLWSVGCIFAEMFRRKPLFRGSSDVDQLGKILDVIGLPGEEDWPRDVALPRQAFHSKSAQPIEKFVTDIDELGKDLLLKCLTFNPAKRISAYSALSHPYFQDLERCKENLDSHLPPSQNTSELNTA
CDK6/CCND1, sequence (P24385 whole entry partner): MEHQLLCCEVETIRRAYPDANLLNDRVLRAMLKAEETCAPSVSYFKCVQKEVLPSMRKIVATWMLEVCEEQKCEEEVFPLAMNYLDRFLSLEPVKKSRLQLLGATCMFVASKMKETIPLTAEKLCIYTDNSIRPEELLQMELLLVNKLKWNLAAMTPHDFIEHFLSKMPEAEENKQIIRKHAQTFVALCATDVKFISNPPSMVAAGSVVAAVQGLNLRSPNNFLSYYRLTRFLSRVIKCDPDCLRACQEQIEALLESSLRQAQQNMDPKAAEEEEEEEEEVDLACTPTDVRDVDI

On to `CS(=O)(=O)c1ccc(Nc2cc3c(C#Cc4ccc(C#N)cc4N)nccc3cn2)cc1` [Ex 567, 3-amino-4-((7-((4-(methylsulfonyl)phenyl)amino)-2,6-naphthyridin-1-yl)ethynyl)benzonitrile], for which the IC50 is < 25 nM on CDK2/CCNE1 (setting [1]), > 250 nM on CDK1/CCNB1, > 250 nM on CDK4/CCND3 and > 250 nM on CDK6/CCND1.
In the case of `COc1cc(C#Cc2nccc3cnc(Nc4ccc(S(C)(=O)=O)cc4)cc23)ncn1` [Ex 568, 5-((6-methoxypyrimidin-4-yl)ethynyl)-N-(4-(methylsulfonyl)phenyl)-2,6-naphthyridin-3-amine], the IC50 is > 250 nM on CDK2/CCNE1 (x = IC50 >250 nM, read-out: CDK2/CCNE IC50 (>250 nM column)); > 250 nM at CDK1/CCNB1; > 250 nM at CDK4/CCND3; > 250 nM at CDK6/CCND1.
As for `CS(=O)(=O)c1ccc(Nc2cc3c(C#Cc4cc(Cl)ncc4N)nccc3cn2)cc1` [Ex 569, 5-((5-amino-2-chloropyridin-4-yl)ethynyl)-N-(4-(methylsulfonyl)phenyl)-2,6-naphthyridin-3-amine], the IC50 at CDK2/CCNE1 (setting [2]) was 25 to 250 nM; at CDK1/CCNB1, > 250 nM; on CDK4/CCND3, > 250 nM; at CDK6/CCND1, > 250 nM.
Turning to `Cc1ccc(C#Cc2nccc3cnc(Nc4ccc(S(C)(=O)=O)cc4)cc23)c(N)c1` [Ex 570, 5-((2-amino-4-methylphenyl)ethynyl)-N-(4-(methylsulfonyl)phenyl)-2,6-naphthyridin-3-amine], the IC50 is < 25 nM at CDK2/CCNE1 (setting [1]), > 250 nM at CDK1/CCNB1, > 250 nM on CDK4/CCND3 and > 250 nM on CDK6/CCND1.
Take `CS(=O)(=O)c1ccc(Nc2cc3c(C#Cc4cc(F)cc(C#N)c4)nccc3cn2)cc1` [Ex 571, 3-fluoro-5-((7-((4-(methylsulfonyl)phenyl)amino)-2,6-naphthyridin-1-yl)ethynyl)benzonitrile]: the IC50 was 25 to 250 nM at CDK2/CCNE1 (setting [2]), > 250 nM on CDK1/CCNB1, > 250 nM on CDK4/CCND3 and > 250 nM on CDK6/CCND1.
Regarding `CS(=O)(=O)c1ccc(Nc2cc3c(C#Cc4ccncc4N)nccc3cn2)cc1` [Ex 572, 5-((3-aminopyridin-4-yl)ethynyl)-N-(4-(methylsulfonyl)phenyl)-2,6-naphthyridin-3-amine], the IC50 is < 25 nM at CDK2/CCNE1 (setting [1]), > 250 nM on CDK1/CCNB1, > 250 nM at CDK4/CCND3 and > 250 nM on CDK6/CCND1.
In the case of `CS(=O)(=O)c1ccc(Nc2cc3c(C#Cc4n[nH]c5ccccc45)nccc3cn2)cc1` [Ex 573, 5-((1H-indazol-3-yl)ethynyl)-N-(4-(methylsulfonyl)phenyl)-2,6-naphthyridin-3-amine], the IC50 was 25 to 250 nM on CDK2/CCNE1 (setting [2]), > 250 nM at CDK1/CCNB1, > 250 nM on CDK4/CCND3 and > 250 nM at CDK6/CCND1.
As to `CS(=O)(=O)c1ccc(Nc2cc3c(C#Cc4cnc5cc[nH]c5c4)nccc3cn2)cc1` [Ex 574, 5-((1H-pyrrolo[3,2-b]pyridin-6-yl)ethynyl)-N-(4-(methylsulfonyl)phenyl)-2,6-naphthyridin-3-amine], the IC50 was < 25 nM at CDK2/CCNE1 (setting [1]), > 250 nM on CDK1/CCNB1, > 250 nM at CDK4/CCND3 and > 250 nM at CDK6/CCND1.
Take `CS(=O)(=O)c1ccc(Nc2cc3c(C#Cc4cncc(Cl)c4N)nccc3cn2)cc1` [Ex 575, 5-((4-amino-5-chloropyridin-3-yl)ethynyl)-N-(4-(methylsulfonyl)phenyl)-2,6-naphthyridin-3-amine]: the IC50 on CDK2/CCNE1 (setting [2]) is 25 to 250 nM; at CDK1/CCNB1, > 250 nM; at CDK4/CCND3, > 250 nM; at CDK6/CCND1, > 250 nM.
Regarding `CS(=O)(=O)c1ccc(Nc2cc3c(C#Cc4c(N)cccc4Cl)nccc3cn2)cc1` [Ex 576, 5-((2-amino-6-chlorophenyl)ethynyl)-N-(4-(methylsulfonyl)phenyl)-2,6-naphthyridin-3-amine], the IC50 on CDK2/CCNE1 (setting [2]) was 25 to 250 nM; at CDK1/CCNB1 it was > 250 nM; at CDK4/CCND3, > 250 nM; at CDK6/CCND1, > 250 nM.
For the compound `CS(=O)(=O)c1ccc(Nc2cc3c(C#Cc4cnc5ccc(Cl)nn45)nccc3cn2)cc1` [Ex 578, 5-((6-chloroimidazo[1,2-b]pyridazin-3-yl)ethynyl)-N-(4-(methylsulfonyl)phenyl)-2,6-naphthyridin-3-amine], the IC50 on CDK2/CCNE1 (setting [2]) was 25 to 250 nM; at CDK1/CCNB1 it was > 250 nM; on CDK4/CCND3, > 250 nM; on CDK6/CCND1, > 250 nM.
With `COc1ncccc1C#Cc1nccc2cnc(Nc3ccc(S(C)(=O)=O)cc3)cc12` [Ex 579, 5-((2-methoxypyridin-3-yl)ethynyl)-N-(4-(methylsulfonyl)phenyl)-2,6-naphthyridin-3-amine], the IC50 at CDK2/CCNE1 (setting [2]) was 25 to 250 nM; at CDK1/CCNB1, > 250 nM; at CDK4/CCND3, > 250 nM; on CDK6/CCND1, > 250 nM.
In the case of `CS(=O)(=O)c1ccc(Nc2cc3c(C#Cc4ccnc(N)c4Cl)nccc3cn2)cc1` [Ex 580, 5-((2-amino-3-chloropyridin-4-yl)ethynyl)-N-(4-(methylsulfonyl)phenyl)-2,6-naphthyridin-3-amine], the IC50 on CDK2/CCNE1 (setting [1]) is < 25 nM; at CDK1/CCNB1, > 250 nM; on CDK4/CCND3 it was > 250 nM; on CDK6/CCND1, > 250 nM.
Turning to `Cc1ccc(C#Cc2nccc3cnc(Nc4ccc(S(C)(=O)=O)cc4)cc23)c(N)n1` [Ex 581, 5-((2-amino-6-methylpyridin-3-yl)ethynyl)-N-(4-(methylsulfonyl)phenyl)-2,6-naphthyridin-3-amine], the IC50 on CDK2/CCNE1 (setting [2]) was 25 to 250 nM; at CDK1/CCNB1, > 250 nM; at CDK4/CCND3, > 250 nM; at CDK6/CCND1, > 250 nM.
As to `Cc1cc(C#Cc2nccc3cnc(Nc4ccc(S(C)(=O)=O)cc4)cc23)n[nH]1` [Ex 582, 5-((5-methyl-1H-pyrazol-3-yl)ethynyl)-N-(4-(methylsulfonyl)phenyl)-2,6-naphthyridin-3-amine], the IC50 was 25 to 250 nM at CDK2/CCNE1 (setting [2]), > 250 nM at CDK1/CCNB1, > 250 nM on CDK4/CCND3 and > 250 nM on CDK6/CCND1.
Turning to `CS(=O)(=O)c1ccc(Nc2cc3c(C#Cc4cccnc4O)nccc3cn2)cc1` [Ex 583, 3-((7-((4-(methylsulfonyl)phenyl)amino)-2,6-naphthyridin-1-yl)ethynyl)pyridin-2(1H)-one], the IC50 at CDK2/CCNE1 (setting [2]) was 25 to 250 nM; on CDK1/CCNB1, > 250 nM; at CDK4/CCND3 it was > 250 nM; on CDK6/CCND1 it was > 250 nM.
In the case of `CS(=O)(=O)c1ccc(Nc2cc3c(C#Cc4ccc(N)nc4)nccc3cn2)cc1` [Ex 584, 5-((6-aminopyridin-3-yl)ethynyl)-N-(4-(methylsulfonyl)phenyl)-2,6-naphthyridin-3-amine], the IC50 at CDK2/CCNE1 (setting [2]) was 25 to 250 nM; on CDK1/CCNB1 it was > 250 nM; on CDK4/CCND3 it was > 250 nM; on CDK6/CCND1, > 250 nM.
In the case of `COc1cncc(C#Cc2nccc3cnc(Nc4ccc(S(C)(=O)=O)cc4)cc23)n1` [Ex 585, 5-((6-methoxypyrazin-2-yl)ethynyl)-N-(4-(methylsulfonyl)phenyl)-2,6-naphthyridin-3-amine], the IC50 was 25 to 250 nM on CDK2/CCNE1 (setting [2]), > 250 nM at CDK1/CCNB1, > 250 nM at CDK4/CCND3 and > 250 nM at CDK6/CCND1.
Regarding `COc1cc(C#Cc2nccc3cnc(Nc4ccc(S(C)(=O)=O)cc4)cc23)c(F)cn1` [Ex 586, 5-((5-fluoro-2-methoxypyridin-4-yl)ethynyl)-N-(4-(methylsulfonyl)phenyl)-2,6-naphthyridin-3-amine], the IC50 at CDK2/CCNE1 (setting [2]) is 25 to 250 nM; at CDK1/CCNB1 it was > 250 nM; on CDK4/CCND3, > 250 nM; at CDK6/CCND1, > 250 nM.
